Assay results from the supplement of paper PMC8149375.

What was measured:
Conditions in all cases: treatment: drug + dasatinib (fixed dose, not stated); 5 days
ACHN [1] = experiment: AUC of dose-response viability curve, drug + dasatinib, normalised to DMSO (arbitrary (AUC of normalised viability)); higher = less growth inhibition
Description: (§1)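 Primary HTS combination arm: 8 RCC cell lines treated with 8 doses (up to 10 uM) of each library drug plus a fixed dose of dasatinib (dose not stated) for 5 days; viability read by CellTiter-Glo and normalised to DMSO. GI50 was fitted with XLfit, AUC is the area under the dose-response curve, and minimum viability is the lowest fraction of DMSO viability across doses.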

SN12C [2] = experiment: as above
Description: as §1

786-O [3] = experiment: as above
Description: as §1

CAKI-1 [4] = experiment: as above
Description: as §1

TK-10 [5] = experiment: as above
Description: as §1

UO-31 [6] = experiment: as above
Description: as §1

A498 [7] = experiment: as above
Description: as §1

769-P [8] = experiment: as above
Description: as §1

ACHN [9] = experiment: GI50 of drug in presence of dasatinib; higher = less potent
Description: as §1

SN12C [10] = experiment: as above
Description: as §1

786-O [11] = experiment: as above
Description: as §1

CAKI-1 [12] = experiment: as above
Description: as §1

TK-10 [13] = experiment: as above
Description: as §1

UO-31 [14] = experiment: as above
Description: as §1

A498 [15] = experiment: as above
Description: as §1

769-P [16] = experiment: as above
Description: as §1

ACHN [17] = experiment: minimum viability across doses, drug + dasatinib, relative to DMSO (fraction); higher = less growth inhibition
Description: as §1

SN12C [18] = experiment: as above
Description: as §1

786-O [19] = experiment: as above
Description: as §1

CAKI-1 [20] = experiment: as above
Description: as §1

TK-10 [21] = experiment: as above
Description: as §1

UO-31 [22] = experiment: as above
Description: as §1

A498 [23] = experiment: as above
Description: as §1

769-P [24] = experiment: as above
Description: as §1

GI50 of drug (ACHN [9]) [µM]	GI50 of drug (786-O [11]) [µM]	Compound	AUC of dose-response viability curve (ACHN [1])	AUC of dose-response viability curve (SN12C [2])	AUC of dose-response viability curve (786-O [3])	AUC of dose-response viability curve (CAKI-1 [4])	AUC of dose-response viability curve (TK-10 [5])	AUC of dose-response viability curve (UO-31 [6])	AUC of dose-response viability curve (A498 [7])	AUC of dose-response viability curve (769-P [8])	GI50 of drug (SN12C [10]) [µM]	GI50 of drug (CAKI-1 [12]) [µM]	GI50 of drug (TK-10 [13]) [µM]	GI50 of drug (UO-31 [14]) [µM]	GI50 of drug (A498 [15]) [µM]	GI50 of drug (769-P [16]) [µM]	minimum viability across doses (ACHN [17])	minimum viability across doses (SN12C [18])	minimum viability across doses (786-O [19])	minimum viability across doses (CAKI-1 [20])	minimum viability across doses (TK-10 [21])	minimum viability across doses (UO-31 [22])	minimum viability across doses (A498 [23])	minimum viability across doses (769-P [24])
1.06	0.136	CC1(C)CCC(c2ccc(Cl)cc2)=C(CN2CCN(c3ccc(C(=O)NS(=O)(=O)c4ccc(N[C@H](CCN5CCOCC5)CSc5ccccc5)c(S(=O)(=O)C(F)(F)F)c4)cc3)CC2)C1 [ABT-263 (Navitoclax)] + Cc1nc(Nc2ncc(C(=O)Nc3c(C)cccc3Cl)s2)cc(N2CCN(CCO)CC2)n1 [dasatinib]	1.9	2.48	1.46	2.36	2.03	2	3.01	1.92	> 10	> 10	1.08	0.4	> 10	0.768	0.0781	0.502	0.00344	0.555	0.0882	0.00471	0.608	0.024
2.33	2.47	N#C/C(=C\c1ccc(O)c(O)c1)C(=O)NCc1ccccc1 [AG-490] + Cc1nc(Nc2ncc(C(=O)Nc3c(C)cccc3Cl)s2)cc(N2CCN(CCO)CC2)n1 [dasatinib]	1.98	2.49	2.36	2.43	2.62	3.44	3.3	2.42	> 10	> 10	> 10	> 10	> 10	8.56	0.179	0.681	0.355	0.667	0.544	0.8	0.887	0.488
0.0209	0.037	COc1cc2ncnc(Nc3cccc(Cl)c3)c2cc1OC [AG-1478 (Tyrphostin AG-1478)] + Cc1nc(Nc2ncc(C(=O)Nc3c(C)cccc3Cl)s2)cc(N2CCN(CCO)CC2)n1 [dasatinib]	1.39	2.37	1.84	2.2	1.93	3.65	3.95	1.67	> 10	7.73	0.726	> 10	> 10	0.107	0.236	0.646	0.284	0.451	0.363	0.586	0.961	0.3
1	4	COc1ccc2c(Oc3ccc(NC(=O)c4c(C)n(CC(C)(C)O)n(-c5ccccc5)c4=O)nc3)ccnc2c1 [AMG458] + Cc1nc(Nc2ncc(C(=O)Nc3c(C)cccc3Cl)s2)cc(N2CCN(CCO)CC2)n1 [dasatinib]	1.89	2.06	2.08	1.92	2.39	3.35	3.38	2.27	1.73	0.893	5.3	4.3	> 10	3.38	0.152	0.396	0.195	0.085	0.392	0.0124	0.771	0.421

The remaining lines, values behind:

Compound	GI50 of drug (ACHN [9]) [µM]	GI50 of drug (786-O [11]) [µM]	AUC of dose-response viability curve (ACHN [1])	AUC of dose-response viability curve (SN12C [2])	AUC of dose-response viability curve (786-O [3])	AUC of dose-response viability curve (CAKI-1 [4])	AUC of dose-response viability curve (TK-10 [5])	AUC of dose-response viability curve (UO-31 [6])	AUC of dose-response viability curve (A498 [7])	AUC of dose-response viability curve (769-P [8])	GI50 of drug (SN12C [10]) [µM]	GI50 of drug (CAKI-1 [12]) [µM]	GI50 of drug (TK-10 [13]) [µM]	GI50 of drug (UO-31 [14]) [µM]	GI50 of drug (A498 [15]) [µM]	GI50 of drug (769-P [16]) [µM]	minimum viability across doses (ACHN [17])	minimum viability across doses (SN12C [18])	minimum viability across doses (786-O [19])	minimum viability across doses (CAKI-1 [20])	minimum viability across doses (TK-10 [21])	minimum viability across doses (UO-31 [22])	minimum viability across doses (A498 [23])	minimum viability across doses (769-P [24])
CN(C)CC[C@H](CSc1ccccc1)Nc1ccc(S(=O)(=O)NC(=O)c2ccc(N3CCN(Cc4ccccc4-c4ccc(Cl)cc4)CC3)cc2)cc1[N+](=O)[O-] [ABT-737] + Cc1nc(Nc2ncc(C(=O)Nc3c(C)cccc3Cl)s2)cc(N2CCN(CCO)CC2)n1 [dasatinib]	2.56	0.469	1.9	2.58	1.74	2.41	2.24	3.71	3.1	2.31	> 10	> 10	3.3	3.31	5.92	2.14	0.23	0.515	0.00111	0.65	0.144	0.00776	0.171	0.0505
CCN1CCN(Cc2ccc(-c3cc4c(N[C@H](C)c5ccccc5)ncnc4[nH]3)cc2)CC1 [AEE788 (NVP-AEE788)] + Cc1nc(Nc2ncc(C(=O)Nc3c(C)cccc3Cl)s2)cc(N2CCN(CCO)CC2)n1 [dasatinib]	0.0137	4.45	1.19	2.16	2.38	2	1.92	2.92	2.9	1.81	2.1	1.77	0.305	1.79	5.83	0.298	0.0466	0.218	0.0446	0.0223	0.0139	0.00751	0.258	0.0653
CC(C)(C)c1cc(C=C(C#N)C#N)cc(Br)c1O [AG-1024] + Cc1nc(Nc2ncc(C(=O)Nc3c(C)cccc3Cl)s2)cc(N2CCN(CCO)CC2)n1 [dasatinib]	> 10	> 10	2.02	2.55	2.42	2.24	2.59	4.02	3.66	2.38	> 10	> 10	> 10	> 10	> 10	> 10	0.515	0.687	0.601	0.57	0.698	1.06	0.971	0.586
